{"source": "PubChem BioAssay (NCI)", "test_in_all_cases": "NCI-60 cell line screen, 48 h", "key": {"[1]": {"test_system": "MOLT-4 leukemia"}, "[2]": {"test_system": "MDA-MB-435"}, "[3]": {"test_system": "MCF7 breast"}, "[4]": {"test_system": "HL-60(TB) leukemia"}, "[5]": {"test_system": "TK-10 renal"}, "[6]": {"test_system": "HOP-92 NSCLC"}, "[7]": {"test_system": "MALME-3M melanoma"}, "[8]": {"test_system": "NCI-H522 lung"}, "[9]": {"test_system": "BT-549 breast"}, "[10]": {"test_system": "SF-539 CNS"}, "[11]": {"test_system": "HS 578T breast"}, "[12]": {"test_system": "IGROV1 ovarian"}, "[13]": {"test_system": "SW-620 colon"}, "[14]": {"test_system": "DU-145 prostate"}, "[15]": {"test_system": "MDA-MB-231 breast"}, "[16]": {"test_system": "CCRF-CEM leukemia"}, "[17]": {"test_system": "NCI/ADR-RES ovarian"}, "[18]": {"test_system": "MDA-N"}, "[19]": {"test_system": "HCT-15 colon"}, "[20]": {"test_system": "U251 CNS"}, "[21]": {"test_system": "EKVX NSCLC"}, "[22]": {"test_system": "SK-MEL-28 melanoma"}, "[23]": {"test_system": "786-0 renal"}, "[24]": {"test_system": "COLO 205 colon"}, "[25]": {"test_system": "NCI-H460 lung"}, "[26]": {"test_system": "ACHN renal"}, "[27]": {"test_system": "SK-MEL-5 melanoma"}, "[28]": {"test_system": "SF-295 CNS"}, "[29]": {"test_system": "T-47D breast"}, "[30]": {"test_system": "K-562 leukemia"}, "[31]": {"test_system": "OVCAR-4 ovarian"}, "[32]": {"test_system": "SNB-75 CNS"}, "[33]": {"test_system": "OVCAR-3 ovarian"}, "[34]": {"test_system": "HCC-2998 colon"}, "[35]": {"test_system": "NCI-H23 lung"}, "[36]": {"test_system": "UACC-62 melanoma"}, "[37]": {"test_system": "SF-268 CNS"}, "[38]": {"test_system": "SNB-19 CNS"}, "[39]": {"test_system": "A498 renal"}, "[40]": {"test_system": "M14 melanoma"}, "[41]": {"test_system": "NCI-H226 lung"}, "[42]": {"test_system": "RXF 393 renal"}, "[43]": {"test_system": "HT29 colon"}, "[44]": {"test_system": "HCT-116 colon"}, "[45]": {"test_system": "SN12C renal"}, "[46]": {"test_system": "OVCAR-8 ovarian"}, "[47]": {"test_system": "UACC-257 melanoma"}, "[48]": {"test_system": "PC-3 prostate"}, "[49]": {"test_system": "HOP-62 NSCLC"}, "[50]": {"test_system": "OVCAR-5 ovarian"}, "[51]": {"test_system": "RPMI-8226 leukemia"}, "[52]": {"test_system": "CAKI-1 renal"}, "[53]": {"test_system": "SK-MEL-2 melanoma"}, "[54]": {"test_system": "A549 NSCLC"}, "[55]": {"test_system": "SK-OV-3 ovarian"}, "[56]": {"test_system": "KM12 colon"}, "[57]": {"test_system": "UO-31 renal"}, "[58]": {"test_system": "SR leukemia"}, "[59]": {"test_system": "LOX IMVI melanoma"}}, "note": "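These data come from cells grown in 96-well plates and exposed to compound for 48 hours at five concentrations. TGI marks complete inhibition of growth.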"}
{"smiles": "O=C1N[C@@H]2c3c(Br)sc(Br)c3C(=O)[C@@H]2O1", "values": [{"measurement": "TGI", "setting": "[1]", "value": 4.61, "unit": "µM"}, {"measurement": "TGI", "setting": "[2]", "value": 6.33, "unit": "µM"}, {"measurement": "TGI", "setting": "[3]", "value": 12.6, "unit": "µM"}, {"measurement": "TGI", "setting": "[4]", "value": 1.96, "unit": "µM"}, {"measurement": "TGI", "setting": "[5]", "value": 10.5, "unit": "µM"}, {"measurement": "TGI", "setting": "[6]", "value": 11.8, "unit": "µM"}, {"measurement": "TGI", "setting": "[7]", "value": 7.63, "unit": "µM"}, {"measurement": "TGI", "setting": "[8]", "value": 1.53, "unit": "µM"}, {"measurement": "TGI", "setting": "[9]", "value": 24.1, "unit": "µM"}, {"measurement": "TGI", "setting": "[10]", "value": 24.1, "unit": "µM"}, {"measurement": "TGI", "setting": "[11]", "value": 78.7, "unit": "µM"}, {"measurement": "TGI", "setting": "[12]", "value": 11.6, "unit": "µM"}, {"measurement": "TGI", "setting": "[13]", "value": 4.04, "unit": "µM"}, {"measurement": "TGI", "setting": "[14]", "value": 28.2, "unit": "µM"}, {"measurement": "TGI", "setting": "[15]", "value": 5.83, "unit": "µM"}, {"measurement": "TGI", "setting": "[16]", "value": 3.94, "unit": "µM"}, {"measurement": "TGI", "setting": "[17]", "value": 18, "unit": "µM"}, {"measurement": "TGI", "setting": "[18]", "value": 6.44, "unit": "µM"}, {"measurement": "TGI", "setting": "[19]", "value": 4.05, "unit": "µM"}, {"measurement": "TGI", "setting": "[20]", "value": 6.1, "unit": "µM"}, {"measurement": "TGI", "setting": "[21]", "value": 4.44, "unit": "µM"}, {"measurement": "TGI", "setting": "[22]", "value": 6.64, "unit": "µM"}, {"measurement": "TGI", "setting": "[23]", "value": 19.8, "unit": "µM"}, {"measurement": "TGI", "setting": "[24]", "value": 6.58, "unit": "µM"}, {"measurement": "TGI", "setting": "[25]", "value": 27.7, "unit": "µM"}, {"measurement": "TGI", "setting": "[26]", "value": 3.48, "unit": "µM"}, {"measurement": "TGI", "setting": "[27]", "value": 18.4, "unit": "µM"}, {"measurement": "TGI", "setting": "[28]", "value": 32.5, "unit": "µM"}, {"measurement": "TGI", "setting": "[29]", "value": 27, "unit": "µM"}, {"measurement": "TGI", "setting": "[30]", "value": 2.56, "unit": "µM"}, {"measurement": "TGI", "setting": "[31]", "value": 3.43, "unit": "µM"}, {"measurement": "TGI", "setting": "[32]", "value": 16.7, "unit": "µM"}, {"measurement": "TGI", "setting": "[33]", "value": 3.38, "unit": "µM"}, {"measurement": "TGI", "setting": "[34]", "value": 10.8, "unit": "µM"}, {"measurement": "TGI", "setting": "[35]", "value": 7.35, "unit": "µM"}, {"measurement": "TGI", "setting": "[36]", "value": 27.5, "unit": "µM"}, {"measurement": "TGI", "setting": "[37]", "value": 28.7, "unit": "µM"}, {"measurement": "TGI", "setting": "[38]", "value": 30.3, "unit": "µM"}, {"measurement": "TGI", "setting": "[39]", "value": 30.4, "unit": "µM"}, {"measurement": "TGI", "setting": "[40]", "value": 3.81, "unit": "µM"}, {"measurement": "TGI", "setting": "[41]", "value": 28.8, "unit": "µM"}, {"measurement": "TGI", "setting": "[42]", "value": 4.95, "unit": "µM"}, {"measurement": "TGI", "setting": "[43]", "value": 3.59, "unit": "µM"}, {"measurement": "TGI", "setting": "[44]", "value": 2.78, "unit": "µM"}, {"measurement": "TGI", "setting": "[45]", "value": 8.1, "unit": "µM"}, {"measurement": "TGI", "setting": "[46]", "value": 4.52, "unit": "µM"}, {"measurement": "TGI", "setting": "[47]", "value": 8.76, "unit": "µM"}, {"measurement": "TGI", "setting": "[48]", "value": 18.7, "unit": "µM"}, {"measurement": "TGI", "setting": "[49]", "value": 42.7, "unit": "µM"}, {"measurement": "TGI", "setting": "[50]", "value": 27, "unit": "µM"}, {"measurement": "TGI", "setting": "[51]", "value": 25.4, "unit": "µM"}, {"measurement": "TGI", "setting": "[52]", "value": 2.37, "unit": "µM"}, {"measurement": "TGI", "setting": "[53]", "value": 37.1, "unit": "µM"}, {"measurement": "TGI", "setting": "[54]", "value": 32.6, "unit": "µM"}, {"measurement": "TGI", "setting": "[55]", "value": 32.7, "unit": "µM"}, {"measurement": "TGI", "setting": "[56]", "value": 26, "unit": "µM"}, {"measurement": "TGI", "setting": "[57]", "value": 24.8, "unit": "µM"}, {"measurement": "TGI", "setting": "[58]", "value": 4.03, "unit": "µM"}, {"measurement": "TGI", "setting": "[59]", "value": 3.54, "unit": "µM"}]}
